Measured values from paper PMC7619385 (ACS infectious diseases, 2025).

What was measured:
[1] = target: T1, LmxCLK1 (Leishmania mexicana, UniProt E9AMP2); assay: Intact mass LC-MS for covalent adduct formation; assay type: binding; conditions: 2 h incubation at room temperature, inhibitor:protein 3:1
T1 sequence (E9AMP2 1-422): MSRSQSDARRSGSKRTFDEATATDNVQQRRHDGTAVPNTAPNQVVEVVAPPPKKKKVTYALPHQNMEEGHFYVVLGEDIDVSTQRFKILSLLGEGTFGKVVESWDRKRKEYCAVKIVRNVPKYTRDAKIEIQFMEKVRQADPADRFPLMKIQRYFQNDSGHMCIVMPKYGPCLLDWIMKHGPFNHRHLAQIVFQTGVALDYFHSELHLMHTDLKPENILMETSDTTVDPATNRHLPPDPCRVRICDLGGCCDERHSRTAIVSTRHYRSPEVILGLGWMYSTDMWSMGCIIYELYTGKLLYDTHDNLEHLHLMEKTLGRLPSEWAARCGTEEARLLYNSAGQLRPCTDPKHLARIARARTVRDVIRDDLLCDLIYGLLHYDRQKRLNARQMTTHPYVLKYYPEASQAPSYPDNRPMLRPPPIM
Protocol: Samples were analyzed by LC-ESI-MS in a XEVO G2 Sx Q-ToF (Waters) at LACTAD-UNICAMP, Brazil. […]
where background is the background fluorescence obtained in the absence of enzyme (blank).
To determine IC50 values, the background-corrected HTRF ratio was plotted as a function of test compound concentration, and the data were fitted to the sigmoidal dose-response (variable slope) equation [2] available in GraphPad Prism (v. 9.1.0):
Signal ratio (665/620) = Plateau + Plateau)(* − Plateau’())($ [2] […]
where Hill = Hill slope describing the steepness of the curve and x = test compound concentration.
To obtain normalized enzymatic activity we used the background corrected HTRF ratio of enzymatic […]
and 0% enzyme activity, respectively.
To establish the contribution of compound pre-incubation to the IC50 assay, we pre-incubated WZ8040 with LmxCLK1 for 5, 10, 15 and 30 minutes at room temperature, prior to starting the phosphorylation reaction by adding ATP and the peptide substrate. The enzymatic reactions were carried following the procedures described above.
For fitting of kinact and KI values from endpoint pre-incubation IC50 data, we used the equation [3], first described by Krippendorff and colleagues:7 […]
IC"&(t) = k. […]
(CQMED clone ID LmxCLK1-cb001) and the two covalent inhibitors WZ8040 and WZ3146. […] Samples were analyzed by LC-ESI-MS in a XEVO G2 Sx Q-ToF (Waters) at LACTAD-UNICAMP, Brazil. […]

[2] = system: L. mexicana T7/Cas9 Δclk1, Δclk2 and Cys172Ala LmxCLK1 lines; assay: Viability of T7/Cas9 null mutant and cysteine point-mutant lines; assay type: cell-based, Leishmania mexicana; conditions: 96 h, versus parental T7/Cas9 line
Description: Data represent mean ± SD of four independent experiments performed in triplicate. […] Data represent mean ± SD of two independent experiments performed in duplicate. […] Data represent mean ± SD of two independent experiments performed in triplicate. […] Values are mean ± SEM.
L. mexicana (strain MNYC/BZ/62/M379) promastigotes were cultivated in medium 199 (M199) (Earle’s Salts - Gibco) supplemented with 10% (v/v) heat-inactivated fetal calf serum (HIFCS – Cultilab) and 1% Penicillin/Streptomycin solution (Sigma-Aldrich) at 26 °C. Phenotypic drug response assays in null mutant and point-mutation mutant lines were performed in HOMEM supplemented with 10% (v/v) heat-inactivated fetal calf serum (HIFCS – Gibco).

[3] = system: LmxCLK1-overexpressing L. mexicana; assay: microbe, parasite or virus in culture; assay type: cell-based, Leishmania mexicana
[4] = system: THP-1-derived macrophages; conditions: human, 24 h, 100 µM
Protocol: For evaluation of drug effect on promastigote and uninfected macrophage viability, cells were cultivated in the presence of test compounds for 24 h and incubated with 10% AlamarBlue™ Cell Viability Reagent (ThermoFisher) for 24 h before measuring fluorescence at λex 540 nm/λem 590 nm. Untreated cells (1% DMSO) were set as 100 % viable cells. […] Experiments were performed in duplicate.

[5] = system: L. mexicana intracellular amastigotes; assay: Intracellular amastigote viability in THP-1 macrophages (DAPI counting); assay type: cell-based; conditions: Leishmania mexicana, macrophage-internalized amastigotes, 48 h
Protocol: L. mexicana (strain MNYC/BZ/62/M379) promastigotes were cultivated in medium 199 (M199) (Earle’s Salts - Gibco) supplemented with 10% (v/v) heat-inactivated fetal calf serum (HIFCS – Cultilab) and 1% Penicillin/Streptomycin solution (Sigma-Aldrich) at 26 °C. […] THP-1 monocytes were differentiated in adherent macrophages with 50 ng of PMA for 72 h at 37 °C and 5% CO2 before infection with stationary phase promastigotes (ratio 10 promastigotes:1 macrophage) for 6 h, followed by washing to remove non-internalized Leishmania. Infected macrophages were incubated at 34 °C and 5% CO2 for 48 h in RPMI (Gibco) supplemented with 10% HIFCS and 1% Penicillin/Streptomycin solution.
For evaluation of drug effect on promastigote and uninfected macrophage viability, cells were cultivated in the presence of test compounds for 24 h and incubated with 10% AlamarBlue™ Cell Viability Reagent (ThermoFisher) for 24 h before measuring fluorescence at λex 540 nm/λem 590 nm. Untreated cells (1% DMSO) were set as 100 % viable cells. Intracellular amastigotes were treated with compounds for 48 h. Slides with paraformaldehyde-fixed and DAPI-stained cells were imaged on a Zeiss AxioImager microscope – at least 200 macrophages per drug concentration and DMSO control. Experiments were performed in duplicate. The total number of amastigotes was normalized by the number of macrophages counted.

[6] = system: T790M mutant form of EGFR; conditions: cited from earlier work

Structure (SMILES)	Covalent adduct formation with purified LmxCLK1 [1]	Sensitivity of Δclk1 line [2]	EC50 ([3]; Leishmania mexicana, read-out: EC50 LmxCLK1-overexpressing parasites)	Reduction of parasite sensitivity by LmxCLK1 overexpression ([3]; compared to wild-type parasites)	Reduction in macrophage viability [4]	EC50 [5]	Selectivity for T790M mutant EGFR compared to wild-type enzyme [6]
C=CC(=O)Nc1cccc(Oc2nc(Nc3ccc(N4CCN(C)CC4)cc3)ncc2Cl)c1 [WZ3146]	formation of covalent adducts						
C=CC(=O)Nc1cccc(Sc2nc(Nc3ccc(N4CCN(C)CC4)cc3)ncc2Cl)c1 [WZ8040]	formation of covalent adducts	significantly enhanced sensitivity	17.6 µM	approximately 3 fold	~ 15%	2.1 µM	over 10 fold
